In PubChem BioAssay (NCI):
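How tested: cells in 96-well plates exposed to compound for 48 hours at five concentrations. Definition used: TGI = concentration required for complete inhibition of growth.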

Assays:
Test in all cases: NCI anticancer screen, dose series, 48 h
HOP-92 NSCLC = test system: HOP-92 NSCLC
CCRF-CEM leukemia = test system: CCRF-CEM leukemia
KM12 colon = test system: KM12 colon
ACHN renal = test system: ACHN renal
A549 NSCLC = test system: A549 NSCLC
UACC-257 melanoma = test system: UACC-257 melanoma
SW-620 colon = test system: SW-620 colon
SN12C renal = test system: SN12C renal
NCI-H460 lung = test system: NCI-H460 lung
OVCAR-4 ovarian = test system: OVCAR-4 ovarian
RPMI-8226 leukemia = test system: RPMI-8226 leukemia
SNB-75 CNS = test system: SNB-75 CNS
OVCAR-8 ovarian = test system: OVCAR-8 ovarian
U251 CNS = test system: U251 CNS
SF-295 CNS = test system: SF-295 CNS
SNB-78 CNS = test system: SNB-78 CNS
HOP-62 NSCLC = test system: HOP-62 NSCLC
HOP-18 NSCLC = test system: HOP-18 NSCLC
NCI-H23 lung = test system: NCI-H23 lung
RXF 393 renal = test system: RXF 393 renal
XF 498 CNS = test system: XF 498 CNS
OVCAR-3 ovarian = test system: OVCAR-3 ovarian
MOLT-4 leukemia = test system: MOLT-4 leukemia
NCI-H226 lung = test system: NCI-H226 lung
SK-MEL-28 melanoma = test system: SK-MEL-28 melanoma
UO-31 renal = test system: UO-31 renal
DMS 114 small cell lung = test system: DMS 114 small cell lung
SK-MEL-2 melanoma = test system: SK-MEL-2 melanoma
KM20L2 colon = test system: KM20L2 colon
OVCAR-5 ovarian = test system: OVCAR-5 ovarian
MALME-3M melanoma = test system: MALME-3M melanoma
HCT-15 colon = test system: HCT-15 colon
LXFL 529 NSCLC = test system: LXFL 529 NSCLC
SK-OV-3 ovarian = test system: SK-OV-3 ovarian
HCC-2998 colon = test system: HCC-2998 colon
EKVX NSCLC = test system: EKVX NSCLC
COLO 205 colon = test system: COLO 205 colon
DMS 273 small cell lung = test system: DMS 273 small cell lung
HL-60(TB) leukemia = test system: HL-60(TB) leukemia
SK-MEL-5 melanoma = test system: SK-MEL-5 melanoma
K-562 leukemia = test system: K-562 leukemia
M14 melanoma = test system: M14 melanoma
DLD-1 colon = test system: DLD-1 colon
NCI-H522 lung = test system: NCI-H522 lung
CAKI-1 renal = test system: CAKI-1 renal
786-0 renal = test system: 786-0 renal
TK-10 renal = test system: TK-10 renal
SF-268 CNS = test system: SF-268 CNS
HT29 colon = test system: HT29 colon
LOX IMVI melanoma = test system: LOX IMVI melanoma
SNB-19 CNS = test system: SNB-19 CNS
DU-145 prostate = test system: DU-145 prostate
MDA-MB-231 breast = test system: MDA-MB-231 breast
UACC-62 melanoma = test system: UACC-62 melanoma
MDA-N = test system: MDA-N
HS 578T breast = test system: HS 578T breast
SF-539 CNS = test system: SF-539 CNS
A498 renal = test system: A498 renal
MCF7 breast = test system: MCF7 breast
IGROV1 ovarian = test system: IGROV1 ovarian
NCI/ADR-RES ovarian = test system: NCI/ADR-RES ovarian
MDA-MB-435 = test system: MDA-MB-435
PC-3 prostate = test system: PC-3 prostate
SR leukemia = test system: SR leukemia
T-47D breast = test system: T-47D breast
M19-MEL melanoma = test system: M19-MEL melanoma
HCT-116 colon = test system: HCT-116 colon

## O=C(CC1(O)C(=O)Nc2c(Cl)cc(Cl)cc21)c1ccco1 (stereo not given)
HOP-92 NSCLC
  TGI: > 100 µM
CCRF-CEM leukemia
  TGI: 68.4 µM
KM12 colon
  TGI: > 100 µM
ACHN renal
  TGI: > 100 µM
A549 NSCLC
  TGI: > 100 µM
UACC-257 melanoma
  TGI: > 100 µM
SW-620 colon
  TGI: > 100 µM
SN12C renal
  TGI: > 100 µM
NCI-H460 lung
  TGI: > 100 µM
OVCAR-4 ovarian
  TGI: 40.8 µM
RPMI-8226 leukemia
  TGI: 60.4 µM
SNB-75 CNS
  TGI: > 100 µM
OVCAR-8 ovarian
  TGI: > 100 µM
U251 CNS
  TGI: > 100 µM
SF-295 CNS
  TGI: > 100 µM
SNB-78 CNS
  TGI: 99.5 µM
HOP-62 NSCLC
  TGI: > 100 µM
HOP-18 NSCLC
  TGI: > 100 µM
NCI-H23 lung
  TGI: > 100 µM
RXF 393 renal
  TGI: > 100 µM
XF 498 CNS
  TGI: 67.8 µM
OVCAR-3 ovarian
  TGI: 57 µM
MOLT-4 leukemia
  TGI: 59.1 µM
NCI-H226 lung
  TGI: 71.4 µM
SK-MEL-28 melanoma
  TGI: > 100 µM
UO-31 renal
  TGI: > 100 µM
DMS 114 small cell lung
  TGI: 60 µM
SK-MEL-2 melanoma
  TGI: > 100 µM
KM20L2 colon
  TGI: > 100 µM
OVCAR-5 ovarian
  TGI: > 100 µM
MALME-3M melanoma
  TGI: > 100 µM
HCT-15 colon
  TGI: > 100 µM
LXFL 529 NSCLC
  TGI: > 100 µM
SK-OV-3 ovarian
  TGI: > 100 µM
HCC-2998 colon
  TGI: > 100 µM
EKVX NSCLC
  TGI: > 100 µM
COLO 205 colon
  TGI: > 100 µM
DMS 273 small cell lung
  TGI: > 100 µM
HL-60(TB) leukemia
  TGI: 47.5 µM
SK-MEL-5 melanoma
  TGI: > 100 µM
K-562 leukemia
  TGI: > 100 µM
M14 melanoma
  TGI: > 100 µM
DLD-1 colon
  TGI: > 100 µM
NCI-H522 lung
  TGI: > 100 µM
CAKI-1 renal
  TGI: > 100 µM
786-0 renal
  TGI: > 100 µM
TK-10 renal
  TGI: > 100 µM
SF-268 CNS
  TGI: > 100 µM
HT29 colon
  TGI: > 100 µM
LOX IMVI melanoma
  TGI: > 100 µM
SNB-19 CNS
  TGI: > 100 µM

## O=Cc1cc2c(s1)C(=O)c1sccc1C2=O
HOP-92 NSCLC
  TGI: 2.82 µM
DU-145 prostate
  TGI: 0.319 µM
MDA-MB-231 breast
  TGI: 2.2 µM
UACC-62 melanoma
  TGI: 0.532 µM
KM12 colon
  TGI: 7.88 µM
MDA-N
  TGI: 0.0932 µM
ACHN renal
  TGI: 1.77 µM
A549 NSCLC
  TGI: 1.56 µM
UACC-257 melanoma
  TGI: 0.657 µM
SW-620 colon
  TGI: 0.592 µM
SN12C renal
  TGI: 0.688 µM
HS 578T breast
  TGI: 0.427 µM
NCI-H460 lung
  TGI: 2.69 µM
SF-539 CNS
  TGI: 0.399 µM
OVCAR-4 ovarian
  TGI: 0.599 µM
SNB-75 CNS
  TGI: 0.338 µM
A498 renal
  TGI: 2.66 µM
OVCAR-8 ovarian
  TGI: 0.771 µM
U251 CNS
  TGI: 0.748 µM
SF-295 CNS
  TGI: 0.314 µM
HOP-62 NSCLC
  TGI: 3.27 µM
MCF7 breast
  TGI: 1.33 µM
HOP-18 NSCLC
  TGI: 0.322 µM
NCI-H23 lung
  TGI: 0.441 µM
RXF 393 renal
  TGI: 0.663 µM
XF 498 CNS
  TGI: 2.54 µM
OVCAR-3 ovarian
  TGI: 0.463 µM
MOLT-4 leukemia
  TGI: 9.49 µM
NCI-H226 lung
  TGI: 3.53 µM
SK-MEL-28 melanoma
  TGI: 0.334 µM
UO-31 renal
  TGI: 0.861 µM
DMS 114 small cell lung
  TGI: 0.372 µM
SK-MEL-2 melanoma
  TGI: 0.37 µM
IGROV1 ovarian
  TGI: 2.9 µM
KM20L2 colon
  TGI: 4.16 µM
NCI/ADR-RES ovarian
  TGI: 0.409 µM
OVCAR-5 ovarian
  TGI: 2 µM
MALME-3M melanoma
  TGI: 0.664 µM
MDA-MB-435
  TGI: 0.0334 µM
HCT-15 colon
  TGI: 0.715 µM
LXFL 529 NSCLC
  TGI: 0.38 µM
SK-OV-3 ovarian
  TGI: 5.48 µM
HCC-2998 colon
  TGI: 3.1 µM
EKVX NSCLC
  TGI: 3.18 µM
COLO 205 colon
  TGI: 5.15 µM
PC-3 prostate
  TGI: 6.29 µM
DMS 273 small cell lung
  TGI: 0.308 µM
HL-60(TB) leukemia
  TGI: 5.41 µM
SK-MEL-5 melanoma
  TGI: 0.255 µM
K-562 leukemia
  TGI: > 17 µM
SR leukemia
  TGI: 5.45 µM
M14 melanoma
  TGI: 0.146 µM
DLD-1 colon
  TGI: 1.07 µM
NCI-H522 lung
  TGI: 2.02 µM
CAKI-1 renal
  TGI: 3.15 µM
786-0 renal
  TGI: 2.42 µM
TK-10 renal
  TGI: 4.14 µM
SF-268 CNS
  TGI: 0.526 µM
HT29 colon
  TGI: 3.69 µM
T-47D breast
  TGI: 4.38 µM
LOX IMVI melanoma
  TGI: 0.155 µM
SNB-19 CNS
  TGI: 0.668 µM
M19-MEL melanoma
  TGI: 0.0709 µM
HCT-116 colon
  TGI: 0.598 µM
